Source: US12194048B2, “Use of pyrrolopyridine derivatives for preventing or treating inflammatory diseases” (VORONOI CO., LTD., priority 2020, dated 2025)

What was measured:
Caco-2 permeability = format: in vitro ADME; conditions: human
From the text: Caco-2 permeability observes the cell membrane permeability of a drug, and can be considered an index associated with drug absorption and excretion.

THP-1 cells = experiment: Pro-inflammatory cytokine expression in LPS-stimulated THP-1 cells; format: cell-based; conditions: pre-treated 1 hour, then LPS 0.5 μg/ml 24 hours; FIG. 1a
[1] = test system: DSS-induced inflammatory bowel disease mouse model; experiment: DSS-induced inflammatory bowel disease mouse model; format: in vivo, male C57BL/6 mice; conditions: 20 mg/kg orally twice a day
Method: The animals used for the present experiment was male C57BL/6 mice (aged 6 to 8 weeks) weighting 20 to 24 g, purchased from Charles River Laboratories. All the mice except the normal control were made to drink 3% DSS water for 5 days to induce enteritis.
The comparative compound cyclosporine A was dissolved in 0.5% methylcellulose solvent and orally administered once a day at a prescribed concentration (20 mg/kg), and Tofacitinib was dissolved in 0.5% methylcellulose solvent and orally administered twice a day at a prescribed concentration (10 mg/kg).
Changes in body weight, occult bleeding in stool, and stool consistently were examined daily during the experiment to assess the degree of disease activity, and upon termination of the experiment (day 12), bowel tissue was collected in order to measure bowel tissue weight and length, perform histological analysis using H&E dyeing and PAS dyeing, and analyze expression of inflammatory cytokines in the bowel tissue.
To assess disease activity, changes in weight and other criteria disclosed in Table 4 below were used for scoring; scores were aggregated.

[2] = test system: 2,4,6-trinitrobenzenesulfonic acid (TNBS) induced colitis mouse model; experiment: TNBS induced colitis mouse model; format: in vivo, male BALB/c mice; conditions: 60 mpk orally once daily
Method: In the present experiment, male BALB/c mice (8 weeks old) were used. The experimental animals were subjected to dietary restriction for one day prior to treating with TNBS. Bowel inflammation was induced by administering TNBS (TNBS solution, 1 mg in 0.1 mL 50% ethanol) by submucosal injection in the colon. For the control animals in which inflammation was not induced, only 0.9% NaCl solution without TNBS was administered by submucosal injection in the colon.
The comparative compound, cyclosporine A, was orally administered once daily, and the TNF-α blocker (Enbrel®) was administered intraperitoneally once daily.
During the test, changes in body weight, occult bleeding in stool, and stool consistently were examined every day, and serum was collected on day 5 of the experiment. Bowel tissue was collected at the termination of the experiment to measure the weight of the bowel tissue, degree of polymorphonuclear leukocyte (PMN) deposition and degree of myeloperoxidase (MPO) expression.

[3] = test system: peripheral blood mononuclear cells of inflammatory bowel disease patients; experiment: Inflammatory cytokine expression in PBMC of inflammatory bowel disease patients; format: cell-based, human; conditions: treated 24 hours; FIG. 4
[4] = Plasma stability evaluation; format: in vitro ADME; conditions: LC-MS/MS
Method: Hydrolysis in plasma is a factor which, together with metabolic reactions, impacts fast in-vivo decomposition of a drug and short half-life thereof; plasma stability is a test which assesses these. The compound at a certain concentration was added to plasma and reacted for a certain period, then collected, and LC-MS/MS was used to measure the percentage of compound remaining relative to the amount prior to the reaction.

[5] = Metabolic stability (MS) evaluation; format: in vitro ADME
[6] = test system: IMQ-induced psoriasis-like skin inflammation model; experiment: Topical treatment in imiquimod (IMQ)-induced psoriasis-like skin inflammation; format: in vivo, BALB/c mice
Method: Dexamethasone (0.15%), the reference compound, was applied topically at 20 μL/mouse on the right ear once daily (QD) during the same study period.
Fifteen (15) mg imiquimod (IMQ) cream (5%) (Aldara; 3M Pharmaceuticals) was topically administered once daily (QD) on the right ear one hour after treatment from Day 1 to Day 9 for 9 consecutive days, translating to a daily dose of 0.75 mg of the active compound.
Ear swelling was measured on Day 0 and thereafter 30 min before dosing on Days 2, 4, 6 and 8. On Day 10, ear swelling was measured 24 hours after the last dosing.

[7] = test system: collagen-induced arthritis mouse model; experiment: Collagen-induced arthritis mouse model; format: in vivo, male DBA-1 mice
Method: In the present experiment, male DBA-1 mice aged 8 to 10 weeks were used as the animal model. After mixing Bovine Type II Collagen (CII) with the same amount of complete Freud's adjuvant, 100 μL was injected by intradermal injection into the tail of the DBA-1 mouse. After 21 days, the same CII was mixed with the same amount of incomplete Freud's adjuvant (IFA, Chondrex), then 100 μL was injected by intradermal injection into the tail. Observation of symptoms of the mouse model began at this point, and arthritis assessment was carried out every other day. […] In the case of the control group Enbrel (anti-TNF-α), 10 mg/kg was subcutaneously administered once every 2 days, then dexamethasone (0.15 mg/kg), Baricitinib (5 mg/kg), Filgotinib (50 mg/kg), and Tofacitinib (10 mg/kg) were orally administered twice a day; as for arthritis assessment, the scores assessed at the four feet of the mouse were added and divided by 4 to give a mean, based on the mean arthritic index by Rosloniec et al (Reference Literature 1: Brand D D, et al. Nat Protoc. 2007:2(5): 1269-75).
The scores and criteria for the arthritis assessment are as follows. • Score 0: No edema or erythema. • Score 1: Mild edema and erythema limited to the foot or ankle joint • Score 2: Mild edema and erythema from the ankle joint to the tarsals • Score 3: Moderate edema and erythema from the ankle joint to the metatarsals. • Score 4: Severe edema and skin flaring from the ankle to the entire leg, or stiffness in the leg
Upon termination of the experiment, the weight of the two hind legs of each mouse were measured and added, and these measurements were compared.
Vol. 30, No. I, p93-96.; Reference 3: Pine P R, et al. Clin Immunol. 124 (3): 244-57).

NF-κb signaling pathway = experiment: Intranuclear movement of p50 and p65 in LPS-stimulated THP-1 cells; format: cell-based; conditions: LPS-treated THP-1 cells; FIG. 1b
[8] = 30 mg/kg orally twice a day, H&E and T-blue, FIGS. 3c to 3e

## CCNc1cc(Nc2ccc(C(=O)N3CCC(N4CCOCC4)CC3)cc2OC)nc2[nH]cc(C(F)(F)F)c12 [Compound 1, (4-((4-(ethylamino)-3-(trifluoromethyl)-1H-pyrrolo[2,3-b]pyridine-6-yl)amino)-3-methoxyphenyl)(4-morpholinopiperidine-1-yl)methanone]
Caco-2 permeability
  Papp: 0.201 ×10⁻⁶ cm/s
THP-1 cells
  expression of IL-6: effectively inhibited
  expression of TNF-α: effectively inhibited
[1]; FIG. 7
  disease activity: reduced to the level of the control administered cyclosporine A
[1]; FIG. 8
  expression of IL-6 in bowel tissue: decreased
  expression of IL-17A in bowel tissue: decreased
  expression of TNR-α in bowel tissue: decreased
[1]; histological analysis, FIG. 8
  loss of goblet cells: reduced
[1]; vs control not treated, FIG. 7
  body weight reduction: less weight reduction
[2]; FIG. 6
  weight of bowel tissue: weight reduction
[2]; H&E, FIG. 5
  thickness of lamina propria: decreased in thickness
[2]; bowel tissue, vs control not treated, FIG. 6
  MPO levels: lower
[3]
  expression of IL-6: effectively inhibiting
  expression of IL-17A: effectively inhibiting
  expression of TNF-α: effectively inhibiting
[4]; 30 min
  Plasma stability (% remaining, 30 min): 100%
[4]; 120 min
  Plasma stability (% remaining, 120 min): 97.2%
[5]
  MS (1 μM) (% remaining during 30 min) Rat: 20%
[6]; 0.3, 1% and 3% topical 20 μL/mouse QD x 9 days, Day 6 to Day 10, dose-dependent, vs no treatment and vehicle
  IMQ-induced ear swelling: moderate to significant (p<0.05) inhibition
[6]; 3% topical, vs no treatment group and vehicle group
  severity of skin lesions (histopathological examination of the ear skin): attenuated significantly
[6]; 3%, high dose, 20 μL/mouse QD×9 days topically
  protective effects in IMQ-induced psoriasis-like inflammation (ear swelling, ear weight, histopathological result): significant (p<0.05) protective effects
[7]; 30 mg/kg orally twice a day for 2 weeks, FIG. 3b
  weight of the joint: reduced
[7]; [8]
  area of cells where collagen-induced inflammation had occurred (histology): reduced
  area of the damaged joint (histology): reduced
NF-κb signaling pathway
  intranuclear movement of p50: effectively inhibited
  intranuclear movement of p65: effectively inhibited
